From ChEMBL document CHEMBL1201862, “PubChem BioAssay data set” (2004)
Active and inactive are the calls of the source. For most assays here, no stated cut-off is given here; in the data, actives have a measured EC50 and inactives only a lower limit.

How the values were obtained:
[1] = Luminescence Cell-Based Dose Retest to Confirm Inhibitors of Cancer Stem Cells. [Related pubchem assays (depositor defined):AID2717, AID2721]; type: functional; conditions: Homo sapiens
[2] = molecular target: ATP-dependent molecular chaperone HSP82 (Candida albicans (strain WO-1) (Yeast), UniProt C4YTQ8); assay: loss of DOC-induced GRE-beta-galactosidase reporter signal, dose response, Hsp90 inhibitor project, S. cerevisiae, luminescence (AID 2400); type: functional, cell-based;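 further: beta-galactosidase luminescence from glucocorticoid response element reporter as proxy for Hsp90 function; inhibitor potency where signal loss means Hsp90 inhibition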
[3] = molecular target: T1, Serine/threonine-protein phosphatase (Candida dubliniensis (strain CD36 / CBS 7987 / NCPF 3949 / NRRLY-17841) (Yeast), UniProt B9W6M3); assay: calcineurin pathway inhibitors in yeast reporter, dose response, S. cerevisiae, CDRE-lacZ, luminescence, secondary (AID 2388); type: functional, cell-based;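 further: yeast reporter cells carrying a calcineurin-responsive lacZ construct stimulated with calcium chloride; luminescent beta-galactosidase reporter signal in whole cells rather than isolated phosphatase activity; potency for inhibition where a drop in reporter signal means calcineurin blockade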
T1 sequence (B9W6M3 whole entry): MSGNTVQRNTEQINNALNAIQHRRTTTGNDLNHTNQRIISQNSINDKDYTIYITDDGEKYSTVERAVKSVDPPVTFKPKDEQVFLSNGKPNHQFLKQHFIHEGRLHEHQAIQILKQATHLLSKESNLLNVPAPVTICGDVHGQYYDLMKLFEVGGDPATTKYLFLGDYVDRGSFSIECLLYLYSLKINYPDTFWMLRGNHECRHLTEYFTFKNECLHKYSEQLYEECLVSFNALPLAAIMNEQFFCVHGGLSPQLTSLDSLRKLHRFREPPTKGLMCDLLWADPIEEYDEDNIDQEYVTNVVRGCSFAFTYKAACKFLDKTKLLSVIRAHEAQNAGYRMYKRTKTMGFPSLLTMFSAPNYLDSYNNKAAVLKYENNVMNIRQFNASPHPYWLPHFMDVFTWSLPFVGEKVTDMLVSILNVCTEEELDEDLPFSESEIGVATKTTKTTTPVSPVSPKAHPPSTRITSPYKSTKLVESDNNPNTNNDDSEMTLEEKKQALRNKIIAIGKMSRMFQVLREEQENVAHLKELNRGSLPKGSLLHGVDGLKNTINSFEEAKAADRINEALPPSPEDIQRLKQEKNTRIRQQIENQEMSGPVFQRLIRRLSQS

[4] = NIH-3T3 fibroblast cytotoxicity, dose response, cytotoxicity control, cell-based, fluorescence, Alamar Blue, secondary assay (AID 2327); type: functional;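 further: NIH-3T3 mouse fibroblasts cultured with fluconazole at 8 µg/mL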
[5] = C. albicans growth with fluconazole, confirmation, fluorescence, retest (AID 2467); type: functional, cell-based
[6] = molecular target: Dual specificity protein phosphatase 3 (Homo sapiens, UniProt P51452); assay: VHR phosphatase inhibition, dose response, selectivity assay for STEP inhibitor project, biochemical (AID 602374); type: functional; conditions: read-out: IC50_Mean
[7] = molecular target: T2, Tyrosine-protein phosphatase non-receptor type 5 (Homo sapiens, UniProt P54829); assay: STEP phosphatase inhibitors, confirmation, biochemical, fluorescence intensity, uHTS hits (AID 602372); type: functional; conditions: read-out: IC50_Mean
T2 sequence (P54829 whole entry): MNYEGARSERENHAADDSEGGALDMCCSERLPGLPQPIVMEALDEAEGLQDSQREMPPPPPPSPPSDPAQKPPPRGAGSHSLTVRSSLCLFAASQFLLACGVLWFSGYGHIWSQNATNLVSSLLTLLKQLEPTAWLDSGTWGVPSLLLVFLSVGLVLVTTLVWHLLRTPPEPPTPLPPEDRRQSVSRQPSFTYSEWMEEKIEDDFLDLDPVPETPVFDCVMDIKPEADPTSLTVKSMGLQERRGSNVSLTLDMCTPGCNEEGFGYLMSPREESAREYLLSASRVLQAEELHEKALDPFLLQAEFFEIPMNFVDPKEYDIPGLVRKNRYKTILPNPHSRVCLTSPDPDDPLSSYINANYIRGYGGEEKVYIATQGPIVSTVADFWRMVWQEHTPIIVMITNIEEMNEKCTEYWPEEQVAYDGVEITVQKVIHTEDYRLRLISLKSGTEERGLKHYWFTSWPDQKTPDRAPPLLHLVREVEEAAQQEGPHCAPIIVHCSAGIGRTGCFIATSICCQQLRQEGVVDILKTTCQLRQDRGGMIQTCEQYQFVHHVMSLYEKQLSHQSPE

[8] = molecular target: T3, Tyrosine-protein phosphatase non-receptor type 11 (Homo sapiens, UniProt Q06124); assay: SHP2 phosphatase inhibition, dose response, selectivity assay for STEP inhibitor project, biochemical (AID 602367); type: functional; conditions: read-out: IC50_Mean
T3 sequence (Q06124 whole entry): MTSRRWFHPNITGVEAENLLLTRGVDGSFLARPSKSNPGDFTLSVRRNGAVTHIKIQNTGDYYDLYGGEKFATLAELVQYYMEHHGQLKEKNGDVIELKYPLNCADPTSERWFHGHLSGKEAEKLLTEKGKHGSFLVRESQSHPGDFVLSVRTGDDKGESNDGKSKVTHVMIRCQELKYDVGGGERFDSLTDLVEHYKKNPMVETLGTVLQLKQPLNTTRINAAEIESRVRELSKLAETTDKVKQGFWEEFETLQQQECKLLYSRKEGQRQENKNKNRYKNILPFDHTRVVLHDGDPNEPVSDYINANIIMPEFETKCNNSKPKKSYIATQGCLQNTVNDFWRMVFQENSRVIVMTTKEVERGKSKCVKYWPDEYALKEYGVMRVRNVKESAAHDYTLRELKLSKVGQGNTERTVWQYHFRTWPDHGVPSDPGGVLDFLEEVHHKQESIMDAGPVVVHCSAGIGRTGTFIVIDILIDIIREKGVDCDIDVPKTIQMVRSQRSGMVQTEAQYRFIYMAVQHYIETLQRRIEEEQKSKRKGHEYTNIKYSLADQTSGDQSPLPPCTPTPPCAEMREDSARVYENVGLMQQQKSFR

[9] = molecular target: T4, Histone-lysine N-methyltransferase NSD2 (Homo sapiens, UniProt O96028); type: biochemical
T4 sequence (O96028 whole entry): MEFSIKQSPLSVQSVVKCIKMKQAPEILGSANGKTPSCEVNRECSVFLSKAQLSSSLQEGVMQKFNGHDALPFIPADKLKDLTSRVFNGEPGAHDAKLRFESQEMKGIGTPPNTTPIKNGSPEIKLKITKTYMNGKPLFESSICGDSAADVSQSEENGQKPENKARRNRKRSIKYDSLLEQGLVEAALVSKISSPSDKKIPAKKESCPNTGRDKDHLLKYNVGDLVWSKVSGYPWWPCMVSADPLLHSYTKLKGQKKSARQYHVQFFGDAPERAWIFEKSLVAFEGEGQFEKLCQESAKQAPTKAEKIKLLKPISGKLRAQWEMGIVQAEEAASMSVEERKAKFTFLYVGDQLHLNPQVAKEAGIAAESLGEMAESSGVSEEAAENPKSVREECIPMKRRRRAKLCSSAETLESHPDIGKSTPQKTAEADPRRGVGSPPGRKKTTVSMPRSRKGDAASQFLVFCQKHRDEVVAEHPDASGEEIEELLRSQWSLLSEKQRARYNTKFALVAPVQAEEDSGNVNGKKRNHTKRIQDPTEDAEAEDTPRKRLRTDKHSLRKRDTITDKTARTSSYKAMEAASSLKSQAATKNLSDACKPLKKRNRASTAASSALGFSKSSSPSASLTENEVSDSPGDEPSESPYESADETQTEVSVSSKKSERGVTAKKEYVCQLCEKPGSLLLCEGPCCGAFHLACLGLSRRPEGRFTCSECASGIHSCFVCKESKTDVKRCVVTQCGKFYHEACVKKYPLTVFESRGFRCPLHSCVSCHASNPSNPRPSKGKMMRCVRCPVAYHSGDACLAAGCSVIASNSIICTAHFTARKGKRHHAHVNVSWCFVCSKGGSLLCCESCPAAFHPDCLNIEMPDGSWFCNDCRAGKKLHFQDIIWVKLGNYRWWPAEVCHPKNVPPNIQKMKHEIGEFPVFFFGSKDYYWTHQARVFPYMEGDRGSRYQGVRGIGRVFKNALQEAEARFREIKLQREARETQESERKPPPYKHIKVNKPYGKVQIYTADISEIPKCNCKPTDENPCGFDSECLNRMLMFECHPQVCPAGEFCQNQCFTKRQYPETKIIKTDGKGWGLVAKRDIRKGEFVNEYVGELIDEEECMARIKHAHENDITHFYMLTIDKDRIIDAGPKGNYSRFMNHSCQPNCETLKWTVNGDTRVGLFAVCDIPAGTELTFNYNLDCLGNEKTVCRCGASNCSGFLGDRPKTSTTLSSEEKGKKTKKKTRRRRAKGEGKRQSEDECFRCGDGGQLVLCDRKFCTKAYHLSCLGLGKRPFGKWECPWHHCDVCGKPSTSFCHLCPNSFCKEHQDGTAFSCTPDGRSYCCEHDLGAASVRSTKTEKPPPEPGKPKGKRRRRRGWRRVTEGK

[10] = molecular target: T5, Ubiquitin-conjugating enzyme E2 N (Homo sapiens, UniProt P61088); type: functional;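 further: Dose-response confirmation in a TR-FRET assay detecting UBC13-driven polyubiquitin chain formation, inhibition measured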
T5 sequence (P61088 whole entry): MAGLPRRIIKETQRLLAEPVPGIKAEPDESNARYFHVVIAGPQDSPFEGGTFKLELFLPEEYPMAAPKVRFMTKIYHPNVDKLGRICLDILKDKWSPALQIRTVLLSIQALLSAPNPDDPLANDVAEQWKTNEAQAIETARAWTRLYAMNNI

[11] = molecular target: T6, DNA repair protein RAD52 homolog (Homo sapiens, UniProt P43351); type: functional, biochemical
T6 sequence (P43351 whole entry): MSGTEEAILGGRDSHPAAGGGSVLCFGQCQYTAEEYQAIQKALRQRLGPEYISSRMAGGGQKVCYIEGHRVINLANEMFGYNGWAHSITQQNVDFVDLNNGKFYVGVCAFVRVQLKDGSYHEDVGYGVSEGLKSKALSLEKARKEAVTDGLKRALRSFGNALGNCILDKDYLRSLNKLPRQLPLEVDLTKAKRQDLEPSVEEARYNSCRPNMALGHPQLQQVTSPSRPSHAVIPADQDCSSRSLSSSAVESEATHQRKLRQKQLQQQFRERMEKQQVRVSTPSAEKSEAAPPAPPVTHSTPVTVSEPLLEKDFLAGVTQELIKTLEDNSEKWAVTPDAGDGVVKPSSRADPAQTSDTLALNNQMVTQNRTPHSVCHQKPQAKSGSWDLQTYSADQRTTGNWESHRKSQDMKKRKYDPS

INS1 = assay: beta cell apoptosis inhibitors, cytokine rescue, dose response, luminescence, retest (AID 449756); type: functional, cell-based; conditions: Rattus norvegicus;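 further: cell death triggered by IL-1 beta plus TNF-alpha plus IFN-gamma mixture; protective hits raise ATP signal compared with cytokine alone wells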
[12] = microbe, parasite or virus in culture; type: functional; conditions: Mycobacterium tuberculosis
BJ [13] = assay: cytotoxicity toward BJ-TERT-LT-ST fibroblasts, dose response, cell-based, RAS-independent, luminescence (AID 1935); type: functional; conditions: Homo sapiens;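 further: BJ fibroblasts immortalized with TERT plus LT and ST oncogenes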
BJ [14] = assay: cytotoxicity toward BJ-TERT fibroblasts, dose response, cell-based, RAS-independent, luminescence (AID 1933); type: functional; conditions: Homo sapiens
BJ [15] = assay: cells; type: functional, cell-based; conditions: Homo sapiens
[16] = cytotoxicity toward DRD oncogenic fibroblasts, dose response, cell-based, non-viral oncogenic, luminescence (AID 1934); type: functional; conditions: Homo sapiens
[17] = molecular target: Heat shock protein HSP 90-alpha (Homo sapiens, UniProt P07900); type: functional, organism-based
cells [18] = type: functional, cell-based
cells [19] = type: functional, cell-based; remark: listed apart in the source
[20] = cytotoxicity toward NIH3T3 fibroblasts, dose response, counter-screen, cell-based, ATP luminescence, mouse fibroblasts (AID 2010); type: functional;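 further: cells exposed to compound for about 90 hours before reading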
[21] = inhibitors of intracellular T. cruzi replication, confirmation, NIH3T3 host cells, beta-gal luminescence (AID 2044); type: functional, cell-based;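 further: intracellular parasites grown in NIH/3T3 mouse fibroblasts as host cells; luminescent beta-galactosidase reporter signal from transgenic T. cruzi replicating inside host cells; inhibitors lower the luminescence signal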

ATP-dependent molecular chaperone HSP82, sequence (C4YTQ8 whole entry): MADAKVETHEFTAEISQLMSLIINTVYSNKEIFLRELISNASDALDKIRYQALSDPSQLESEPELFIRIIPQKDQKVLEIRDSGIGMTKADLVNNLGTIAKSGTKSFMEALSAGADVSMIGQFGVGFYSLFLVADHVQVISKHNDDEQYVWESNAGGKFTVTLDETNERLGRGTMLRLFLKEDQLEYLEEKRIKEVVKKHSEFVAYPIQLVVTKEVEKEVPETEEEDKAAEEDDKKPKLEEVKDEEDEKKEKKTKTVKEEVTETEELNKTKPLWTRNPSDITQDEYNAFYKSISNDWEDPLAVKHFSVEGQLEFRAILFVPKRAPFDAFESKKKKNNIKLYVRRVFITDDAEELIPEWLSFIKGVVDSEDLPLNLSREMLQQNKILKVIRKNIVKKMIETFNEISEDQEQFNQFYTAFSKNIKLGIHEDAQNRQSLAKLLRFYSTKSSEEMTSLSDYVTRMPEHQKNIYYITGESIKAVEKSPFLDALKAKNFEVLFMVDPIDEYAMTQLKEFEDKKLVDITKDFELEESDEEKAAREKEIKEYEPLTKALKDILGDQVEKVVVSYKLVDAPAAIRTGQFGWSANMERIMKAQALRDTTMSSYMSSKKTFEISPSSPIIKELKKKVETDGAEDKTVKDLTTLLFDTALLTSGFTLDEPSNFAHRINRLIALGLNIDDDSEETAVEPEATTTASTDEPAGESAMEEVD
Dual specificity protein phosphatase 3, sequence (P51452 whole entry): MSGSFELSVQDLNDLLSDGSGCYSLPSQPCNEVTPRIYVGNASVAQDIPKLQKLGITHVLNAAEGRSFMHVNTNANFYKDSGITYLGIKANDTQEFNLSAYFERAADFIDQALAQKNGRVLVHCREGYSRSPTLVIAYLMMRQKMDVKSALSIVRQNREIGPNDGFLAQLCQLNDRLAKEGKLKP

COc1ccc(C2=NN(c3nc4ccccc4s3)C(=O)C2)cc1
AC50 [1]: 2.21 µM (active)
EC50 [2]: 1.4 µM (active)
EC50 [3]: 3.92 µM (active)
EC50 [4]: > 160 µM (inconclusive)
EC50 [5]: > 38 µM (not active)

NS(=O)(=O)c1ccc(NC(=S)N2CCC(Cc3ccccc3)CC2)cc1
IC50 [6]: 1.03 µM (active)
IC50 [7]: 38.8 µM (inactive)
IC50 [8]: 3.13 µM (active)

C=CCNCCCCOc1ccccc1
AC50 [9]: > 20 µM (inactive)

CN(C)CCOC(=O)c1ccc2[nH]c3c(c2c1)CSCC3
IC50 [10]: > 20 µM (inactive)
AC50 [11]: 0.792 µM (active)

O=C1NN(c2cccc(Br)c2)C(=O)/C1=C\c1ccc(N2CCOCC2)cc1
IC50 [6]: 2.55 µM (active)
IC50 [7]: 21.3 µM (inactive)
IC50 [8]: 4.48 µM (active)

CCCCC(=O)NC(=S)Nc1cccc(NC(=O)c2ccco2)c1
EC50 [2]: > 160 µM (inactive)
EC50 [3]: > 180 µM (inactive)
EC50 [4]: > 150 µM (inconclusive)
EC50 [5]: 4.79 µM (active)

C(C#CCCCCCCCCC[n+]1ccccc1)#CCCCCCCCCC[n+]1ccccc1
EC50 [2]: > 150 µM (inactive)
EC50 [3]: > 180 µM (inactive)
AC50 (INS1): 1.67 µM (active)
CC50 [12]: > 40 µM (active)
EC50 [4]: > 150 µM (inactive)
EC50 (BJ [13]): 6.02 µM (active)
EC50 (BJ [14]): 2.28 µM (inconclusive)
EC50 [5]: 0.05 µM (active)
EC50 (BJ [15]): > 150 µM (inconclusive)
EC50 [16]: 5.68 µM (active)
AC50 [17]: 3.58 µM (active)

CCN(CC)CCCNc1ncnc2scc(-c3ccc(F)cc3)c12
AC50 [9]: > 20 µM (inactive)

COc1cccc(/C=N/NC(=O)c2c(C)nc3ccc(Br)cn23)c1O
EC50 (cells [18]): 126 µM (active)
EC50 [2]: 23.8 µM (active)
EC50 [3]: > 180 µM (inactive)
AC50 (INS1): 0.842 µM (active)
EC50 [4]: > 160 µM (inactive)
EC50 (cells [19]): 7.35 µM (active)
EC50 [5]: 0.483 µM (active)
EC50 [20]: > 60 µM (inconclusive)
EC50 [21]: 3.06 µM (active)
